Measurements from US7521414B2, “Polyol macrolide antitumor-antibiotics from the marine actinomycete strain CNQ140” (priority 2003, dated 2009).
Values after ≈ are worked out from the molar mass of the structure shown.

What was measured:
Assay type in all cases: cell-based
[1] = tested on: vancomycin-resistant Enterococcus faecium (VREF); experiment: antibiotic activity (MIC) against VREF
Description: (§1) As shown by the data in Table 1 below the invention therapeutic compounds have both anticancer and antibiotic activity, as illustrated in tests against HCT-116 human colon adenocarcinoma cancer cells (HCT-116); methicillin resistant Staphylococcus aureus (MRSA); and vancomycin-resistant Enterococcus faecium (VREF):
(§2) As shown by the data in Table 1 below the invention therapeutic compounds have both anticancer and antibiotic activity, as illustrated in tests against HCT-116 colon cancer cells (HCT-116); methicillin resistant Staphylococcus aureus (MRSA); and vancomycin-resistant Enterococcus faecium (VREF).

all 60 cell lines = experiment: National Cancer Institute's 60 cancer cell line in vitro cytotoxicity assay
Description: Compounds CNQ140.996a, CNQ140.996b, and CNQ140.996c were examined in the National Cancer Institute's 60 cancer cell line, in vitro, cytotoxicity assay. The following cytoxicity data were derived for the invention compounds: […]

[2] = tested on: HCT-116 human colon adenocarcinoma cancer cells; experiment: anticancer activity against HCT-116 colon cancer cell line; details: for growth inhibition against the cancer cell line HCT-116 human colon carcinoma: in words
Method: For extraction of compounds from the CNQ140 actinomycete, the following protocol was used. Pre-washed XAD-7 resin (20 g) was added to 1 liter of culture and mixed for 1 hour. The contents were collected by filtration, washed with deionized water (1 liter) and eluted with acetone (250 ml). The extraction liquid from each successive extraction step (as shown in FIG. 1) was tested for anticancer activity (IC50) against HCT-116 colon cancer cell line. […] A second extraction step using C-18 reverse phase HPLC and a solvent of 65% MeCN in water yielded four distinct compounds with activity against the colon cancer cell line. […] The chemical structures of these compounds appear below:
as §1
Pre-washed XAD-7 resin (20 g) was added to 1 liter of culture and mixed for 1 hour. The contents were collected by filtration, washed with deionized water (1 liter) and eluted with acetone (250 ml). The extraction liquid from each successive extraction step (as shown in FIG. 1) was tested for anti-cancer activity (IC50) against HCT-116 colon cancer cell line. […] A second chromatographic purification step for fraction CNQ140-3, using C-18 reverse phase HPLC and 65% MeCN in water, yielded four distinct CNQ140 macrolide polyol-polyene compounds with activity against the colon cancer cell line: […]

[3] = tested on: methicillin resistant Staphylococcus aureus (MRSA); experiment: antibiotic activity (MIC) against MRSA
Description: as §1, §2

CCC(O)CC1CC(O)C/C=C/[C@@H](O)C[C@@H](O)C/C(C)=C/C=C/C=C/C=C\c2cccc(O)c2C(=O)OC(CC(C)O)CC(O)C/C=C/[C@@H](O)C[C@@H](O)C/C(C)=C/C=C/C=C/C=C\c2cccc(O)c2C(=O)O1 (stereo partly shown) [CNQ140.996c]
VREF (MIC microgm/ml) [1]: 0.25 microgm/ml | GI50 (all 60 cell lines; average over NCI 60 cell lines, read-out: Average GI50 against all 60 cell lines): 5.1 nM | tissue type selectivity (all 60 cell lines; most sensitive: 6 of the 8 melanoma cancer types (LOX IMVI, M14, SK-MEL-2, SK-MEL-5, UACC-257, UACC-62)): significant tissue type selectivity | IC50 ([2]; Homo sapiens, HCT-116, HCT-116 cells, read-out: HCT-116 (IC50 microgm/ml)): 2.6 µg/mL (≈ 2.57 µM) | growth inhibition against the cancer cell line HCT-116 human colon carcinoma [2]: showed growth inhibition | MRSA (MIC microgm/ml) [3]: 0.25 microgm/ml

CCC(O)CC1CC(O)C/C=C/[C@@H](O)C[C@@H](O)C/C(C)=C/C=C/C=C/C=C\c2cccc(O)c2C(=O)OC(CC(C)O)CC(O)C/C=C/[C@@H](O)C[C@@H](O)C/C(C)=C/C=C/C=C/C=C\c2cccc(O)c2C(=O)O1 (stereo partly shown) [CNQ140.1010]
VREF (MIC microgm/ml) [1]: 0.25 microgm/ml | HCT-116 (IC50 microgm/ml) ([2]; HCT-116 cells): 3.1 microgm/ml | growth inhibition against the cancer cell line HCT-116 human colon carcinoma [2]: showed growth inhibition | MRSA (MIC microgm/ml) [3]: 0.25 microgm/ml
